Where no end group is shown, it is not given here.
Experiments:
E0771 cells = test: Flow cytometry of E0771 cells in co-culture with CD8+ T cells; assay type: cell-based, mouse; details: H5 5 μM
Method: Treatments with staurosporine (1 μM) were for 1 h. […]
mouse CD8+ T cells and mKate-E0771 cells. b) Representative flow cytometry contour plots of E0771 cells in: left) co-cultures of E0771 cells (50,000 cells well-1) and activated […]
cells well-1), right) E0771 alone cells treated with staurosporine (1 µM, 1 h). c) Representative flow cytometry contour plots of CD8+ T cells in: left) co-cultures of E0771 […]
2 h) murine CD8+ T cells (200,000 cells well -1). All cultures in b) and c) were equally […]
with and without preincubation of the GzmB inhibitor Ac -IEPD-CHO. Data presented as […]
633/670 nm (for AF647-Annexin V). Representative plots from independent experiments performed in triplicate. Source data in d provided as a Source Data file.

human GzmB (hGzmB) = molecular target: T1, human GzmB (hGzmB) (Homo sapiens, UniProt P10144); test: Fluorescence assay with recombinant hGzmB (fluorogenic response, time course); assay type: biochemical; details: for t50: probe 25 μM, hGzmB 20 nM
T1 construct: For active GzmB vs pro-GzmB, p < 0.0001
T1 sequence (P10144 21-247): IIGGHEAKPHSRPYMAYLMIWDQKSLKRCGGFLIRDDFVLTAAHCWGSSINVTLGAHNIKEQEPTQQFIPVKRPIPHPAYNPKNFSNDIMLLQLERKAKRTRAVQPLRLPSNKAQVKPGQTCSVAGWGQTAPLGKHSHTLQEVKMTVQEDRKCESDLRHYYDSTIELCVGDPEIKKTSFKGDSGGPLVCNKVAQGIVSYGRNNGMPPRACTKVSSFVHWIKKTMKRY
Method: Fluorescence-based assays with different enzymes were performed in the appropriate buffers. Probes (25 μM) were added to enzymes (20 nM or at the indicated concentrations) in 384-well plates and their fluorescence emission was recorded at 450 nm (for AMC) or 510 nm (for BODIPY) at 37 °C using a Synergy H1 Hybrid spectrophotometer. In experiments with Ac-IEPD-CHO (50 μM), the inhibitor was preincubated for 1 h with GzmB before the addition of any probe.

SCC cancer cells = test: Ex vivo flow cytometry of wild-type SCC and SCC FAK (−/−) tumors; assay type: cell-based, mouse; details: for Fluorescence intensity of H5 inside SCC cancer cells (525 nm) / Freq cancer cells (GzmB-positive SCC cancer cells by H5 staining): H5 5 μM, 30 min; for Mean fluorescence intensity after incubation with probe H5: SCC (-/-) tumor digests
Method: P-values from two-tailed t-tests using Welch correction. Source data (c–f) provided as a Source Data file.
All animal work was carried out in compliance with UK Home Office guidelines. SCC tumors were established and labeled for flow cytometry as previously described. Briefly, 1 × 10^6 SCC cancer cells (obtained from Dr Alan Serrels at The University of Edinburgh) were injected subcutaneously into FVB/N mice (n = 4 for both WT and FAK (−/−) groups, Sex: female, Age: 10–14 weeks, obtained from Harlan UK), which were sacrificed 14 days post-implantation and tumors disaggregated to generate a single-cell suspension. […] Data analysis was performed using FlowJo V10 software. […]
and SCC7.1 FAK-/- tumors. All cells were gated on singlets and live cells (Zombie NIR viability dye, 1:1000 dilution). Wild-type SCC and SCC FAK-/- were gated as CD45− CD140a− (AF700 & BV650, respectively). All non-cancerous and non-fibrotic cells were gated on CD45+ (AF700). Monocytes were gated on CD11b+ (PerCP-Cy5.5) whilst the remaining cells were classified as CD8+ T cells (PE), CD4+ T cells (eFluor450) or immune cells (CD4−CD8− or CD4+CD8+).
(§1) (1 picture or pasted object on this page, not shown here)

hGzmB = test: Limit of detection of hGzmB by probe fluorescence; assay type: biochemical, human; details: H5 25 μM, 37 °C, emission 530 nm, no washing steps (Fig. S4)
Method: Supplementary Figure 1. Reactivity of fluorogenic substrates against human GzmB and limits of detection. a) Reaction conversion rates (by HPLC-UV detection at 350 nm) for Ac-IEPD-AMC (50 μM) in TRIS buffer (see Methods) at 37 °C containing different concentrations of hGzmB. Data presented as mean values±SEM (n=3 independent biological experiments). b) Reaction conversion rates (by HPLC-UV detection at 500 nm) for the tetrapeptide T1 (25 μM) in TRIS buffer at 37 °C containing different concentrations of hGzmB. Data presented as mean values±SEM (3 independent biological experiments).
Source data provided as a Source Data file.
as §1
Supplementary Figure 4. Comparative enzyme selectivity and limit of detection for […]
Ac-IEPD-AMC (all at 25 μM) after incubation for 90 min at 37 °C with hGzmB (light gray bars), human caspase-3 (dark gray bars) and hGzmA (white bars) (all enzymes used at 20 nM). Data presented as mean values±SEM (n=3). Excitation wavelengths: 450 nm (for […]
450 nm (for Ac-IEPD-AMC). b) Limit of detection of hGzmB by fluorescence emission […]
presented as mean values±SD (2 independent experiments with 3 technical replicates).

Question: For “IEPDAL [H5, FRET hexapeptide IEPDAL with BODIPY-FL fluorophore at the N-terminal end and Dabcyl quencher]”, which “cancer cells double-stained with H5 and Annexin V-AF647” value (E0771 cells; E0771-La2-NLR cells cultured with activated T cells) is on record?
Answer: over 80%

Question: What about the “H5 +ve E0771 cells” value (E0771 cells; E0771 alone, staurosporine 1 μM, 1 h, replicate 1) of the same substance?
Answer: 2.3%

Question: What about the “H5 +ve E0771 cells” value (E0771 cells; E0771 alone, staurosporine 1 μM, 1 h, replicate 2) of the same substance?
Answer: 1.69%

Question: And the “H5 +ve E0771 cells” value (E0771 cells; E0771 alone, staurosporine 1 μM, 1 h, replicate 3)?
Answer: 2.6%

Question: And the “H5 +ve E0771 cells” value (E0771 cells; co-culture with active CD8+ T cells (24 h IL-2), replicate 1)?
Answer: 79%

Question: And the “H5 +ve E0771 cells” value (E0771 cells; co-culture with active CD8+ T cells (24 h IL-2), replicate 2)?
Answer: 80%

Question: What about the “H5 +ve E0771 cells” value (E0771 cells; co-culture with active CD8+ T cells (24 h IL-2), replicate 3) of the same substance?
Answer: 76%

Question: What about the “H5 +ve E0771 cells” value (E0771 cells; co-culture with inactive CD8+ T cells (2 h IL-2), replicate 1) of the same substance?
Answer: 17%

Question: And the “H5 +ve E0771 cells” value (E0771 cells; co-culture with inactive CD8+ T cells (2 h IL-2), replicate 2)?
Answer: 18%

Question: And the “H5 +ve E0771 cells” value (E0771 cells; co-culture with inactive CD8+ T cells (2 h IL-2), replicate 3)?
Answer: 27%

Question: What about the “specificity for hGzmB over other enzymes” value (human GzmB (hGzmB); caspases, granzymes, MMPs, neutrophil elastase, pro-hGzmB) of the same substance?
Answer: minimal response to other enzymes

Question: What about the t50 (human GzmB (hGzmB); Data 1) of the same substance?
Answer: 7 min

Question: What about the t50 (human GzmB (hGzmB); Data 2) of the same substance?
Answer: 7 min

Question: What about the t50 (human GzmB (hGzmB); Data 3) of the same substance?
Answer: 7 min

Question: What about the “Fluorescence intensity of H5 inside SCC cancer cells (525 nm)” value (shortened to “Fluorescence intensity … (525 nm)”) (SCC cancer cells; SCC FAK tumor, Data 1) of the same substance?
Answer: 17211

Question: What about the “Freq cancer cells (GzmB-positive SCC cancer cells by H5 staining)” value (from here on “Freq cancer cells”) (SCC cancer cells; SCC FAK tumor, Data 1) of the same substance?
Answer: 19%

Question: What about the “Fluorescence intensity … (525 nm)” value (SCC cancer cells; SCC FAK tumor, Data 2) of the same substance?
Answer: 15125

Question: And the “Freq cancer cells” value (SCC cancer cells; SCC FAK tumor, Data 2)?
Answer: 45%

Question: What about the “Fluorescence intensity … (525 nm)” value (SCC cancer cells; SCC FAK tumor, Data 3) of the same substance?
Answer: 14692

Question: And the “Freq cancer cells” value (SCC cancer cells; SCC FAK tumor, Data 3)?
Answer: 38%

Question: And the “Fluorescence intensity … (525 nm)” value (SCC cancer cells; SCC FAK tumor, Data 4)?
Answer: 14334

Question: What about the “Freq cancer cells” value (SCC cancer cells; SCC FAK tumor, Data 4) of the same substance?
Answer: 41%

Question: And the “Fluorescence intensity … (525 nm)” value (SCC cancer cells; SCC tumor, Data 1)?
Answer: 5564

Question: What about the “Freq cancer cells” value (SCC cancer cells; SCC tumor, Data 1) of the same substance?
Answer: 6%

Question: What about the “Fluorescence intensity … (525 nm)” value (SCC cancer cells; SCC tumor, Data 2) of the same substance?
Answer: 6027

Question: And the “Freq cancer cells” value (SCC cancer cells; SCC tumor, Data 2)?
Answer: 4.5%

Question: What about the “Fluorescence intensity … (525 nm)” value (SCC cancer cells; SCC tumor, Data 3) of the same substance?
Answer: 5635

Question: What about the “Freq cancer cells” value (SCC cancer cells; SCC tumor, Data 3) of the same substance?
Answer: 2.78%

Question: What about the “Fluorescence intensity … (525 nm)” value (SCC cancer cells; SCC tumor, Data 4) of the same substance?
Answer: 5745

Question: What about the “Freq cancer cells” value (SCC cancer cells; SCC tumor, Data 4) of the same substance?
Answer: 3.77%

Question: And the “Mean fluorescence intensity after incubation with probe H5” value (“Mean fluorescence intensity” for short) (SCC cancer cells; CD4 T cells, Data 1)?
Answer: 3345

Question: What about the “Mean fluorescence intensity” value (SCC cancer cells; CD4 T cells, Data 2) of the same substance?
Answer: 2508

Question: And the “Mean fluorescence intensity” value (SCC cancer cells; CD8 T cells, Data 1)?
Answer: 3289

Question: What about the “Mean fluorescence intensity” value (SCC cancer cells; CD8 T cells, Data 2) of the same substance?
Answer: 2980

Question: And the “Mean fluorescence intensity” value (SCC cancer cells; cancer cells, Data 1)?
Answer: 11273

Question: And the “Mean fluorescence intensity” value (SCC cancer cells; cancer cells, Data 2)?
Answer: 13796

Question: What about the “Mean fluorescence intensity” value (SCC cancer cells; immune cells (CD8-CD4-CD11b-), Data 1) of the same substance?
Answer: 3435

Question: What about the “Mean fluorescence intensity” value (SCC cancer cells; immune cells (CD8-CD4-CD11b-), Data 2) of the same substance?
Answer: 2496

Question: And the “Mean fluorescence intensity” value (SCC cancer cells; monocytes / macrophages, Data 1)?
Answer: 2362

Question: What about the “Mean fluorescence intensity” value (SCC cancer cells; monocytes / macrophages, Data 2) of the same substance?
Answer: 2247

Question: And the “cancer cells labeled with probe H5” value (SCC cancer cells; SCC FAK (−/−) tumors, H5 30 min)?
Answer: over 40%

Question: What about the LoD (hGzmB) of the same substance?
Answer: 6 pM

Source: PMC9061857, “A fluorogenic probe for granzyme B enables in-biopsy evaluation and screening of response to anticancer immunotherapies” (Nature Communications, 2022)
